# Assays:
# Experiment in all cases: Kinase panel profiling
# Assay type in all cases: biochemical
# Conditions in all cases: 10 μM ATP
# JAK1 = biological target: T1, JAK1 (Homo sapiens, UniProt P23458)
# T1 construct: purchased Reaction Biology Corp
# Procedure: (§1) Kinase panel profiling was conducted by Reaction Biology Corp. (San Diego, CA, USA). A single dose (1.0 μM) of 6r was tested against 371 recombinant human kinases in the presence of 10 μM ATP.
# MSSK1/STK23 = biological target: T2, MSSK1/STK23 (Homo sapiens, UniProt Q9UPE1)
# T2 construct: purchased Reaction Biology Corp
# Procedure: as §1
# PKD2/PRKD2 = biological target: T3, PKD2/PRKD2 (Homo sapiens, UniProt Q9BZL6)
# T3 construct: purchased Reaction Biology Corp
# Procedure: as §1
# CDK17/cyclin Y (PCTK2) = biological target: T4, CDK17/cyclin Y (PCTK2) (Homo sapiens, UniProt Q00537)
# T4 construct: purchased Reaction Biology Corp
# Procedure: as §1
# P38a/MAPK14 = biological target: T5, P38a/MAPK14 (Homo sapiens, UniProt Q16539)
# T5 construct: purchased Reaction Biology Corp
# Procedure: as §1
# CK1g1 = biological target: T6, CK1g1 (Homo sapiens, UniProt Q9HCP0)
# T6 construct: purchased Reaction Biology Corp
# Procedure: as §1
# DMPK = biological target: T7, DMPK (Homo sapiens, UniProt Q09013)
# T7 construct: purchased Reaction Biology Corp
# Procedure: as §1
# MAST3 = biological target: T8, MAST3 (Homo sapiens, UniProt O60307)
# T8 construct: purchased Reaction Biology Corp
# Procedure: as §1
# BRSK2 = biological target: T9, BRSK2 (Homo sapiens, UniProt Q8IWQ3)
# T9 construct: purchased Reaction Biology Corp
# Procedure: as §1
# RIPK5 = biological target: T10, RIPK5 (Homo sapiens, UniProt Q6XUX3)
# T10 construct: purchased Reaction Biology Corp
# Procedure: as §1
# MRCKb/CDC42BPB = biological target: T11, MRCKb/CDC42BPB (Homo sapiens, UniProt Q9Y5S2)
# T11 construct: purchased Reaction Biology Corp
# Procedure: as §1
# SGK3/SGKL = biological target: T12, SGK3/SGKL (Homo sapiens, UniProt Q96BR1)
# T12 construct: purchased Reaction Biology Corp
# Procedure: as §1
# STK16 = biological target: T13, STK16 (Homo sapiens, UniProt O75716)
# T13 construct: purchased Reaction Biology Corp
# Procedure: as §1
# STK21/CIT = biological target: T14, STK21/CIT (Homo sapiens, UniProt O14578)
# T14 construct: purchased Reaction Biology Corp
# Procedure: as §1
# PKN2/PRK2 = biological target: T15, PKN2/PRK2 (Homo sapiens, UniProt Q16513)
# T15 construct: purchased Reaction Biology Corp
# Procedure: as §1
# PKCg = biological target: T16, PKCg (Homo sapiens, UniProt P05129)
# T16 construct: purchased Reaction Biology Corp
# Procedure: as §1
# STK32C/YANK3 = biological target: T17, STK32C/YANK3 (Homo sapiens, UniProt Q86UX6)
# T17 construct: purchased Reaction Biology Corp
# Procedure: as §1
# SGK2 = biological target: T18, SGK2 (Homo sapiens, UniProt Q9HBY8)
# T18 construct: purchased Reaction Biology Corp
# Procedure: as §1
# FER = biological target: T19, FER (Homo sapiens, UniProt P16591)
# T19 construct: purchased Reaction Biology Corp
# Procedure: as §1
# CDC7/DBF4 = biological target: T20, CDC7/DBF4 (Homo sapiens, UniProt O00311)
# T20 construct: purchased Reaction Biology Corp
# Procedure: as §1
# MELK = biological target: T21, MELK (Homo sapiens, UniProt Q14680)
# T21 construct: purchased Reaction Biology Corp
# Procedure: as §1
# STK38/NDR1 = biological target: T22, STK38/NDR1 (Homo sapiens, UniProt Q15208)
# T22 construct: purchased Reaction Biology Corp
# Procedure: as §1
# CDK1/cyclin E = biological target: T23, CDK1/cyclin E (Homo sapiens, UniProt P06493)
# T23 construct: purchased Reaction Biology Corp
# Procedure: as §1
# IRR/INSRR = biological target: T24, IRR/INSRR (Homo sapiens, UniProt P14616)
# T24 construct: purchased Reaction Biology Corp
# Procedure: as §1
# CAMK1a = biological target: T25, CAMK1a (Homo sapiens, UniProt Q14012)
# T25 construct: purchased Reaction Biology Corp
# Procedure: as §1
# PKG1b = biological target: T26, PKG1b (Homo sapiens, UniProt Q13976)
# T26 construct: purchased Reaction Biology Corp
# Procedure: as §1
# PKCa = biological target: T27, PKCa (Homo sapiens, UniProt P17252)
# T27 construct: purchased Reaction Biology Corp
# Procedure: as §1
# TNIK = biological target: T28, TNIK (Homo sapiens, UniProt Q9UKE5)
# T28 construct: purchased Reaction Biology Corp
# Procedure: as §1
# PDK1/PDPK1 = biological target: T29, PDK1/PDPK1 (Homo sapiens, UniProt O15530)
# T29 construct: purchased Reaction Biology Corp
# Procedure: as §1
# PKMYT1 = biological target: T30, PKMYT1 (Homo sapiens, UniProt Q99640)
# T30 construct: purchased Reaction Biology Corp
# Procedure: as §1
# SYK = biological target: T31, SYK (Homo sapiens, UniProt P43405)
# T31 construct: purchased Reaction Biology Corp
# Procedure: as §1
# SNARK/NUAK2 = biological target: T32, SNARK/NUAK2 (Homo sapiens, UniProt Q9H093)
# T32 construct: purchased Reaction Biology Corp
# Procedure: as §1
# RSK2 = biological target: T33, RSK2 (Homo sapiens, UniProt P51812)
# T33 construct: purchased Reaction Biology Corp
# Procedure: as §1
# SBK1 = biological target: T34, SBK1 (Homo sapiens, UniProt Q52WX2)
# T34 construct: purchased Reaction Biology Corp
# Procedure: as §1
# EPHA4 = biological target: T35, EPHA4 (Homo sapiens, UniProt P54764)
# T35 construct: purchased Reaction Biology Corp
# Procedure: as §1
# TXK = biological target: T36, TXK (Homo sapiens, UniProt P42681)
# T36 construct: purchased Reaction Biology Corp
# Procedure: as §1
# KHS/MAP4K5 = biological target: T37, KHS/MAP4K5 (Homo sapiens, UniProt Q9Y4K4)
# T37 construct: purchased Reaction Biology Corp
# Procedure: as §1
# TBK1 = biological target: T38, TBK1 (Homo sapiens, UniProt Q9UHD2)
# T38 construct: purchased Reaction Biology Corp
# Procedure: as §1
# DAPK2 = biological target: T39, DAPK2 (Homo sapiens, UniProt Q9UIK4)
# T39 construct: purchased Reaction Biology Corp
# Procedure: as §1
# EGFR = biological target: T40, EGFR (Homo sapiens, UniProt P00533)
# T40 construct: purchased Reaction Biology Corp
# Procedure: as §1
# PASK = biological target: T41, PASK (Homo sapiens, UniProt Q96RG2)
# T41 construct: purchased Reaction Biology Corp
# Procedure: as §1
# GRK7 = biological target: T42, GRK7 (Homo sapiens, UniProt Q8WTQ7)
# T42 construct: purchased Reaction Biology Corp
# Procedure: as §1
# T19 sequence (P16591 whole entry): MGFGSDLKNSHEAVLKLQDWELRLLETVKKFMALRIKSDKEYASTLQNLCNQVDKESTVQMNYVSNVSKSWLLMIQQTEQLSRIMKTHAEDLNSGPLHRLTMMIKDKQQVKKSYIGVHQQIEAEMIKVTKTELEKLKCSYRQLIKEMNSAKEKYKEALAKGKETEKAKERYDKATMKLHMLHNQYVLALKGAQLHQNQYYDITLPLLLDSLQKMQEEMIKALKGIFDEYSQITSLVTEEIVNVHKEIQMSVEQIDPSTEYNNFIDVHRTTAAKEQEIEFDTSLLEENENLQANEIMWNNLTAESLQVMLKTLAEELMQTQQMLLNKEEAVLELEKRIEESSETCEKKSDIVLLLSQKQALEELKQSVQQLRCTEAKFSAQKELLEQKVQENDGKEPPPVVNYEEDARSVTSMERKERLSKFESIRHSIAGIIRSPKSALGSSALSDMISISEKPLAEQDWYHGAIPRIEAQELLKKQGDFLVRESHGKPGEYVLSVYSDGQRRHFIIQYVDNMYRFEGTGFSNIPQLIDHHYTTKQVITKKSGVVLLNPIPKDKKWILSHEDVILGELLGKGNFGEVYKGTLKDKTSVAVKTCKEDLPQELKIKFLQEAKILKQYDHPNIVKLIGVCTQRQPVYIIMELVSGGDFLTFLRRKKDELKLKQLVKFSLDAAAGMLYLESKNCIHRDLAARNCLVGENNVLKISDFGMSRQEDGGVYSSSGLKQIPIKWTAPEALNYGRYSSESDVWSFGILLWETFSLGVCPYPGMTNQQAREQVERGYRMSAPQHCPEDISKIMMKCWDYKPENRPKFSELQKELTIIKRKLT
# T12 sequence (Q96BR1 whole entry): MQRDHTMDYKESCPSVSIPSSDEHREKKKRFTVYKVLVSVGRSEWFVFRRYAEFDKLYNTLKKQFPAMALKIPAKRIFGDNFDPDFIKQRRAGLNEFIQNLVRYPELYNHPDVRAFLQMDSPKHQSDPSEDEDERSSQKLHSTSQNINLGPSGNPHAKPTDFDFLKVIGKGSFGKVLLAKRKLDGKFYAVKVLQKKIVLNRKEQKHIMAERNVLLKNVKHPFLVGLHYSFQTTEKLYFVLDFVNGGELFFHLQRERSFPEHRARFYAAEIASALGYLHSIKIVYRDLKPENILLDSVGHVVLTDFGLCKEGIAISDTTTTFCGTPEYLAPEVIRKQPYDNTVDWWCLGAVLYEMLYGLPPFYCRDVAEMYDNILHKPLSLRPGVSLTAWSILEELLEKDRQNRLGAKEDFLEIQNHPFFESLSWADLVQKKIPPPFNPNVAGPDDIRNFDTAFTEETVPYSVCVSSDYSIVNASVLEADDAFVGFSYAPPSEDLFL
# T7 sequence (Q09013 whole entry): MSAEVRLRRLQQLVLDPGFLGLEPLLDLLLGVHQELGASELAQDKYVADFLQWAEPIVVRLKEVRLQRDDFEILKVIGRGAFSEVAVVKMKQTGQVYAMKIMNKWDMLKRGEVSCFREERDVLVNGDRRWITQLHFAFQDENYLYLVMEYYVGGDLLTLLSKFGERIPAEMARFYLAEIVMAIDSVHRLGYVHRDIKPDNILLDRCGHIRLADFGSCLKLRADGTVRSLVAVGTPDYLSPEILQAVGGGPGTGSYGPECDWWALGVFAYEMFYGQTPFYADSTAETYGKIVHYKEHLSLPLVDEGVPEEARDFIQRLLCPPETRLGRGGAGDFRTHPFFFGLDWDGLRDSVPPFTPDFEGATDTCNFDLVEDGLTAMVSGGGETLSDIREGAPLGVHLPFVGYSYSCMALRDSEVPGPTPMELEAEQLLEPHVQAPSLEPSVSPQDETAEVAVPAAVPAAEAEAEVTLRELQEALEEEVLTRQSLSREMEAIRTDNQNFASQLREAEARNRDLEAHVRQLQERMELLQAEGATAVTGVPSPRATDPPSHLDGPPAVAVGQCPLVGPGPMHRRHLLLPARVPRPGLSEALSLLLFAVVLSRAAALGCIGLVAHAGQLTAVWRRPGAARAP
# T4 sequence (Q00537 whole entry): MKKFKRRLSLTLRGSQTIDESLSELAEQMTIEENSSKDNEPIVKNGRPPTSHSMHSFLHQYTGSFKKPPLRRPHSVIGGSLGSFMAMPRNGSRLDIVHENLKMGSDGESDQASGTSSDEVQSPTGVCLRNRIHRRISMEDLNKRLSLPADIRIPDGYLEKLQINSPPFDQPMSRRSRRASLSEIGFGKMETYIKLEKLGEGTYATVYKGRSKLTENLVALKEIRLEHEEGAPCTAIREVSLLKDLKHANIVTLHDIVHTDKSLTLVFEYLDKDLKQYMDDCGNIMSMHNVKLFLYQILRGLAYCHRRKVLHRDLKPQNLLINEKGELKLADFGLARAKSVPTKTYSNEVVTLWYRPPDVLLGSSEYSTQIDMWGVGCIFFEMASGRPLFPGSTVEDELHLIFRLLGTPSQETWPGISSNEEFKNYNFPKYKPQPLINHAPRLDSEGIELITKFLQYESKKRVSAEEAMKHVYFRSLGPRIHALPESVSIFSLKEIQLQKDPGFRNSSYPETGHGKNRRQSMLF
# T4 sequence (Q8ND76 whole entry partner): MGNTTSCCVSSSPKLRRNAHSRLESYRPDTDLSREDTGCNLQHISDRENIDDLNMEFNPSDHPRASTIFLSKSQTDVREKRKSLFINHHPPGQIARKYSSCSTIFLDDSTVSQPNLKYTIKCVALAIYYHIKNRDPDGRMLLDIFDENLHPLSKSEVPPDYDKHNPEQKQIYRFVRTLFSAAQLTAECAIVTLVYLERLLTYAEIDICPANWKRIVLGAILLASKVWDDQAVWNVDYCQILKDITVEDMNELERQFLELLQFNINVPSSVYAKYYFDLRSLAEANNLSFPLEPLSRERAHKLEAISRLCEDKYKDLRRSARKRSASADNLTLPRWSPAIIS
# T41 sequence (Q96RG2 whole entry): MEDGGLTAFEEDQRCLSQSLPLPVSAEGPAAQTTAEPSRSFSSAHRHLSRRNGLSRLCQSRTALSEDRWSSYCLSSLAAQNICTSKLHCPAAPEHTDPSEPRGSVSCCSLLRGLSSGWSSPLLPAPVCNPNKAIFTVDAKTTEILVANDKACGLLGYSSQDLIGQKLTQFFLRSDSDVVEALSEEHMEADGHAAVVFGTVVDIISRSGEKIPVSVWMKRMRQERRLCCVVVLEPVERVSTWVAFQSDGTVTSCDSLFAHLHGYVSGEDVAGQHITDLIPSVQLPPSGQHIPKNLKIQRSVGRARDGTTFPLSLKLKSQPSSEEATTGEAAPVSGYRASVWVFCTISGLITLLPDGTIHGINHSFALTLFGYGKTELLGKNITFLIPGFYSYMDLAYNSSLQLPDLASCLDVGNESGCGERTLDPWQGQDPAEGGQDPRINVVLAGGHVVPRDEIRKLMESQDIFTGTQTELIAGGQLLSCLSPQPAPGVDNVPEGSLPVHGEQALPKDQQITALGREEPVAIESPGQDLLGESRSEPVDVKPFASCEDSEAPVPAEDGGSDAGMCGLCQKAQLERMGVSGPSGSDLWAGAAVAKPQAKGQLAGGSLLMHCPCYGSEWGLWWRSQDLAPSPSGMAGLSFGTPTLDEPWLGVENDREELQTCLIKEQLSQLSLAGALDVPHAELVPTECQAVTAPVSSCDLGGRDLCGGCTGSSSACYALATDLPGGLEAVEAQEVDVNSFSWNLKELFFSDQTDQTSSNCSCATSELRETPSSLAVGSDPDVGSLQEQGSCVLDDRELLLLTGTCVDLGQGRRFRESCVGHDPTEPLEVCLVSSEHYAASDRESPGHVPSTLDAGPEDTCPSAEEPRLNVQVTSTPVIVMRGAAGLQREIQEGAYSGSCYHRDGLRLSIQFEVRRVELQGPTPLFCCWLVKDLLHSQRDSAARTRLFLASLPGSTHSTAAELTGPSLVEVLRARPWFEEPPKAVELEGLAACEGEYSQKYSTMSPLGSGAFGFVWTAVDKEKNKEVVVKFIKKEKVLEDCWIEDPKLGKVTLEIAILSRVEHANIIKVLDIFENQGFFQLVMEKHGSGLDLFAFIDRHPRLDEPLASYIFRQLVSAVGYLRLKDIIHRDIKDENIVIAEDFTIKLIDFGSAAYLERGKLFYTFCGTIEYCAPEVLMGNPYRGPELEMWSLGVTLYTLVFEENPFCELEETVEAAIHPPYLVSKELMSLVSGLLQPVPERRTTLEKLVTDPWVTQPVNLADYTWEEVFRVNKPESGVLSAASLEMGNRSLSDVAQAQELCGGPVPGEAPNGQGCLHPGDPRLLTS
structure (smiles),measurement,setting,value
Cc1ccc(NC(=O)c2ccc(CN3CCN(C)CC3)c(C(F)(F)F)c2)cc1-c1cnc2sc(N)nc2c1 [6r],inhibition at 1 µM,JAK1,74.9%
same,inhibition at 1 µM,MSSK1/STK23,30.6%
same,inhibition at 1 µM,PKD2/PRKD2,28.6%
same,inhibition at 1 µM,CDK17/cyclin Y (PCTK2),3.9%
same,inhibition at 1 µM,P38a/MAPK14,96.5%
same,inhibition at 1 µM,CK1g1,50.5%
same,inhibition at 1 µM,DMPK,0%
same,inhibition at 1 µM,MAST3,0%
same,inhibition at 1 µM,BRSK2,7.2%
same,inhibition at 1 µM,RIPK5,4.4%
same,inhibition at 1 µM,MRCKb/CDC42BPB,2.4%
same,inhibition at 1 µM,SGK3/SGKL,0.8%
same,inhibition at 1 µM,STK16,3.6%
same,inhibition at 1 µM,STK21/CIT,5.6%
same,inhibition at 1 µM,PKN2/PRK2,0%
same,inhibition at 1 µM,PKCg,0.7%
same,inhibition at 1 µM,STK32C/YANK3,0.6%
same,inhibition at 1 µM,SGK2,3.8%
same,inhibition at 1 µM,FER,0%
same,inhibition at 1 µM,CDC7/DBF4,0.8%
same,inhibition at 1 µM,MELK,17.1%
same,inhibition at 1 µM,STK38/NDR1,17.1%
same,inhibition at 1 µM,CDK1/cyclin E,0%
same,inhibition at 1 µM,IRR/INSRR,0%
same,inhibition at 1 µM,CAMK1a,8%
same,inhibition at 1 µM,PKG1b,3.3%
same,inhibition at 1 µM,PKCa,4.2%
same,inhibition at 1 µM,TNIK,22.4%
same,inhibition at 1 µM,PDK1/PDPK1,7.2%
same,inhibition at 1 µM,PKMYT1,10%
same,inhibition at 1 µM,SYK,3.2%
same,inhibition at 1 µM,SNARK/NUAK2,0%
same,inhibition at 1 µM,RSK2,32.4%
same,inhibition at 1 µM,SBK1,6.7%
same,inhibition at 1 µM,EPHA4,64.7%
same,inhibition at 1 µM,TXK,16.8%
same,inhibition at 1 µM,KHS/MAP4K5,0%
same,inhibition at 1 µM,TBK1,5%
same,inhibition at 1 µM,DAPK2,0.3%
same,inhibition at 1 µM,EGFR,21.4%
same,inhibition at 1 µM,PASK,4.6%
same,inhibition at 1 µM,GRK7,7.5%

# From publication PMC9817970 (Cancers, 2022)
